Consider two substances from PMC10597491 (PLOS ONE, 2023).

One experiment addresses T1, human IL-7Rα ECD (Homo sapiens, UniProt P16871).
T1 construct: IL-7Rα(aa 21–236)-His6, Sino Biological Cat# 10975-H08H; His6 (C); purchased Sino Biological 10975-H08H
T1 sequence (P16871 21-236): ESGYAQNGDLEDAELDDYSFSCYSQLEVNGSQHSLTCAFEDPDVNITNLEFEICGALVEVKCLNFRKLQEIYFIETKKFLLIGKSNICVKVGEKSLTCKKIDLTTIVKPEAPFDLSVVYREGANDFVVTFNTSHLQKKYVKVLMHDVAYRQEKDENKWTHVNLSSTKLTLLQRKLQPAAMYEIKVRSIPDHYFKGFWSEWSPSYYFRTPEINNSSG
The experiment is described as follows: Competition binding ELISA, human IL-7Rα ECD. Particulars: immobilized IL-7Rα-(His)6 ECD; tracer biotinylated MDK1248 pre-complexed with Neutravidin-HRP; 4°C; valency-sensitive format. An excerpt: (A, B) Determination of IC50 values in a competition ELISA for compound binding to human and cyno IL-7Rα and γc. The assay format is IL-7Rα-(His)6-tagged ECD or Fc-γc ECD immobilized on 96-well plates. Tracers are C-terminal biotinylated forms of the reference IL-7Rα and γc peptide ligands, each pre-complexed with Neutravidin-HRP (NA-HRP). (C, D) Label-free measurement of the equilibrium dissociation constant (KD) for peptide binding to IL-7Rα and γc extracellular domains with peptides was performed by biolayer interferometry as detailed in methods. Red lines depict 1:1 binding fit from Gator™ software. Blue lines represent individual BLI sensogram data taken every 0.1 seconds.
Binding was determined using a competition binding ELISA. Microtiter plates (Immulon 4HBX flat bottom 96-well) were coated with 50 μL of […] human ECDs: IL-7Rα(aa 21–236)-His6, Sino Biological Cat# 10975-H08H; cynomolgus IL-7Rα(aa 21–235)-His6, Sino Biological Cat# 90332-C08H; human IL-2Rα(aa 23–254)-Fc, Acro Cat# ILG-H5256; cynomolgus IL-2Rα(aa 23–254)-Fc, made in-house, in PBS overnight at 4°C. […] Plates were washed with cold wash buffer, and bound tracer was detected using TMB One Component HRP substrate and Stop Solution (Surmodics Cat# TMBW-1000-01 and LSTP-0100-01). Absorbance at 450 nm was read using Agilent BioTek Synergy HTX Multimode Reader.

The test system of another experiment is human PBMCs. Kind of experiment: Proliferation and expansion of PBMC subpopulations in culture. In kind it is cell-based. An excerpt:
An essential feature of IL-7-mediated homeostatic lymphoid maintenance is the proliferation of naive T-cells, expanding both recent thymic emigrants and circulating TN clones to sustain the population and preserve a diverse TCR repertoire in the naive T-cell compartment. […] In the CD8+ population, Ki-67+ frequency reached a peak by day 7, declining slightly by day 16. […] The high Ki-67 background in untreated samples of Treg and NK cells may indicate a high basal turnover rate of these cell types in culture.
Data are shown as mean ± SEM. Flow cytometry gating data shown in S2 Fig.
On days 3, 7, 16, and 30, cell aliquots were taken and analyzed by flow cytometry of CD8+ T naïve and memory populations. (A) Schematic of the putative differentiation pathway of the memory T cell compartment. (B) differential gating of naïve and early memory (Tscm) subpopulations. (C) Cell counts of treated and untreated memory subpopulations over time. (D) Stacked bar representation of changes in total memory T cell subpopulations over time. […] Data are shown as mean ± SEM. Detailed gating information is provided in S4 Fig.
Frozen human PBMCs from 5 healthy donors (Stemcell Technologies, Cat# 70025.2, Lot numbers 2108409012, 2109407009, 210680104C, 210680801C, 211280501C, 220781802C) were thawed and rested overnight at 37°C, 5% CO2 in CTS™ OpTmizer™ T-Cell Expansion SFM (ThermoFisher Scientific Cat# A1048501). […] At indicated time points, cell aliquots were taken, and cell surface staining was performed using antibodies shown in S3 Table followed by viability dye staining. For Ki-67 and FoxP3 staining, surfaced stained cells were fixed and permeabilized according to the manufacturer’s instructions and analyzed immediately using the Novocyte Advanteon instrument (Agilent). The data were analyzed using FlowJo software. Fluorescence Minus One (FMO) controls were used to draw gates. Percentages of Ki-67+ cell populations were expressed as average ± SEM. Memory T-cells are as follows: Tn (CD45RA+CCR7+CD28+CD95-), Tscm (CD45RA+CCR7+CD28+CD95+), Tem (CD45RA-CCR7-), Tcm (CD45RA-CCR7+), and Temra (CD45RA+CCR7-). To count cells per well, at each assay time point 50 μL of the cells were taken from each well and incubated with 200 μL of the viability dye solution. The NovoCyte Advanteon flow cytometer was set to analyze precisely 50 μL ([…] original culture volume), which allowed the calculation of the absolute live cell counts. Because the culture volumes change over time due to splitting and removal, dilution factors were considered when calculating the total number of cells.

Bridge positions count the residues as written; N and C are the ends. Ends that are not written are not given here.

On to “Ac-GWGIPWCTLDPGSLQCAWLGKHGGGGSGGVVCQDWEGVELCWQGG (disulfide 7-16, 32-41) [MDK1472]”, for which the IC50 at human IL-7Rα ECD worked out at 340 nM.
For the substance IL-7: human IL-7 cytokine (Peprotech), the “CD4+ and CD8+ maximal counts over day 1 baseline” value in the experiment on human PBMCs (between days 7 and 16) is recorded as 5 fold. In the experiment with human PBMCs (day 30, 100 nM MDK-703 or 1 nM IL-7, untreated 5-fold), the “CD8+ Tscm cell number increase” value was determined as 1300 fold. In addition, the “CD8+ T-cell number, increase over baseline” value in the experiment with human PBMCs (day 30 in culture, 100 nM MDK-703 or 1 nM IL-7, 5 donors) was found to be 5.2 fold. Besides, the “CD8+ Temra expansion” value in the experiment with human PBMCs (over 30 days) is 7 fold.

The IC50 is the point on the concentration scale where inhibition reaches its midpoint.
